Reference: US5559115A, “Oncogene function-inhibitory agent, method for inhibiting oncogene function, and treatment of cancer” (Terumo Kabushiki Kaisha, priority 1993, dated 1996)
Converted amounts (≈) assume the structure as drawn. “Also recorded” adds a separate entry of the source. Read-outs that look alike come from different tables or passages of the source.

Experiments:
[1] = test system: cell morphology; assay: Cell morphology normalizing activity (extract, fractions, purified product); assay type: cell-based
Experimental: The inventors of the present invention then succeeded in the isolation and characterization of the active component in the extract. The present invention has been completed on the bases of such study.
To a small amount of chloroform was dissolved 1.34 g of the extract, and the resulting solution was charged in a column having packed therein 10 g of silica gel (Merck silicagel 60, manufactured by Merck). To the column was first added 100% chloroform to elute the impurities, and then, 100:1 chloroform:methanol was added and the eluate was fractionated into portions of about 10 ml. Each fraction was examined by thin layer chromatography (silica gel; 20:1 chloroform:methanol solvent; UV 330 nm), and fractions having an Rf of 0.56 with blue color were collected.
The thus obtained active substance was dissolved in a small amount of methanol. After removing the precipitates, the solution was charged in a column of Toyopearl HW-40 that had been equilibrated with methanol to thereby carry out the gel filtration chromatography. The column was eluted with 100% methanol and 3 ml fractions were collected. The thus collected fractions were analyzed by thin layer chromatography using 20:1 chloroform:methanol for the developer. […] This substance is hereinafter referred to as III-121C.

[2] = test system: K-ras^ts NRK cells; assay: Propagation inhibitory effect on K-ras^ts NRK cells; assay type: cell-based, rat; details: for IC50: Rattus norvegicus, NRK, 72 h, K-ras^ts NRK, 3 days, read-out: IC50, cell propagation
Experimental: (§1) Normal rat kidney cell, NRK-49 (Dainihon Pharmaceutical K.K.) and normal mouse cell, NIH 3T3 (JCRB Cell Bank); and K-ras NIH 3T3, H-ras NIH 3T3, and N-ras NIH 3T3 (Tokyo University, Medical Science Institute, Japan) which are cell lines that have been transformed with Kirsten sarcoma virus, Harvey sarcoma virus, and neuroblastoma virus, respectively, were incubated at 37° C. in the similar manner.
Cells of K-ras^ts -NRK were inoculated in wells of 24 wells plastic plate (Costar 3524, manufactured by Costar) at 1.0×10^4 /DMEM 1 ml/well, and the plate was incubated in an incubator of 5% CO2 at 33° C. for one day. III-121C was added to the thus incubated cells to different concentrations and the incubation was continued. After predetermined periods, the medium was removed of the cell culture, and cells were peeled off the wall of the well by using trypsin. DMEM was added to the well to uniformly suspend the cells, and the cell concentration in the suspension was measured with Coulter counter (ZM type manufactured by Coulter Electronics) to obtain the results shown in FIG. 7.
(§2) Next, cells of different types were inoculated in wells of 12 wells plastic plate (Costar 3521, manufactured by Costar) at 2.0×10^4 /DMEM 1 ml/well, and the plate was incubated in an incubator of 5% CO2 for one day. III-121C was added to the thus incubated cells to different concentrations and incubation was continued for another 3 days. The number of cells was measured by repeating the above-described procedure to determine the concentration (IC50) of the III-121C required to inhibit the cell propagation to 50%.

[3] = test system: N-ras-NIH 3T3 cells; assay: Propagation inhibitory effect on N-ras-NIH 3T3 cells; assay type: cell-based; details: Mus musculus, NIH3T3, 72 h; N-ras-NIH 3T3, 3 days; read-out: IC50, cell propagation
Experimental: as §1, §2

[4] = Acute toxicity (LD50) on mouse upon intravenous injection; assay type: in vivo; details: in vivo, intravenous injection
Experimental: (§3) Toxicity (LD50) on mouse of III-121C upon intravenous injection was measured.

[5] = test system: mouse; assay: as above; assay type: in vivo; details: compared to conventional alkaloid carcinostatics of plant origin
Experimental: as §3

[6] = test system: cancer cell; assay: 50% inhibition of cancer cell propagation, various cell lines; assay type: cell-based; details: varies by type of cancer cell; approximately; Table 1; read-out: concentration (IC50) required for 50% inhibition of the cancer cell propagation
Experimental: as §2

[7] = test system: NIH 3T3 cells; assay: Propagation inhibitory effect on NIH 3T3 cells; assay type: cell-based; details: Mus musculus, NIH3T3, 72 h; NIH 3T3, 3 days; read-out: IC50, cell propagation
Experimental: as §1, §2

SMILES: CCC12CC(C(=O)OC)=C3Nc4cc5c(cc4C34CCN(CC3OC31)C42)C1C(O5)C(O)C2(CC)CC(C(=O)OC)=C3Nc4c(cc(O)c(OC)c4OC)C34CCN1C42 (stereo not drawn) [III-121C]
- activity of normalizing the cell morphology [1]: confirmed to have an activity of normalizing the cell morphology
- cell propagation inhibition (cell growth curve, FIG. 7) ([2]; K-ras^ts-NRK, 33° C., different concentrations): inhibited the cell propagation in concentration dependent manner
- IC50 ([2]; 33° C.): 0.29 µg/mL (≈ 0.365 µM)
- IC50 ([2]; 39° C.): 0.2 µg/mL (≈ 0.252 µM)
- IC50 [3]: 0.12 µg/mL (≈ 0.151 µM)
- LD50 [4]: 24.3 mg/kg
- acute toxicity in words [5]: weaker toxicity; also recorded: low acute toxicity
- IC50 [6]: 0.1 to 0.5 µg/mL (≈ 0.126 to 0.629 µM)
- IC50 [7]: 0.47 µg/mL (≈ 0.591 µM)
